Data taken from publication PMC9890698 (BMC Biology, 2023).
Where “and” joins values, the source holds several entries; their conditions need not be identical. Equal entries are not always repeated.

Key:
[1] = biological target: T1, Human P2Y1-R (Homo sapiens, UniProt P47900); assay: Gαq protein activation BRET2 assay (Gαq-RLuc8/GFP2-Gγ2/Gβ1) in HEK293T cells expressing P2Y1-R; type: cell-based; settings: for G protein signaling, Ligand-modulated BRET (% of maximum MRS2179 mean value): Figure 4a, individual replicates; for EC50 / pEC50 ± s.e.m. / Emax ± s.e.m.: G protein signaling, Fig. 4a, 1 min; for Emax ± s.e.m.: normalized to the mean value of maximal MRS2179 response, in %; for Behaviour on P2Y1-R-dependent constitutive Gαq protein activation: HEK293T cells, result in words
T1 construct: expressed in transfected cells; host or cells: HEK293T/17
T1 sequence (P47900 whole entry): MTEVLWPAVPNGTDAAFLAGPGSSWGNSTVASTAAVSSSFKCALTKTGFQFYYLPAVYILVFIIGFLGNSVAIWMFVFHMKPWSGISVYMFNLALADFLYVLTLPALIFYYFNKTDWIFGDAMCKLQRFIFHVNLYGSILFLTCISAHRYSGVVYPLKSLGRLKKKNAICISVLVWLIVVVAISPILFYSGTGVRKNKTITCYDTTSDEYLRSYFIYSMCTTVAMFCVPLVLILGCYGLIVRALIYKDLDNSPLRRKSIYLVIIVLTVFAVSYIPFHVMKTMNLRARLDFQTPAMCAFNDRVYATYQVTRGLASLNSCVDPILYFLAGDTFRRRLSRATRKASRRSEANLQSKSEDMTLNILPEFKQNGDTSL
From the text: As previously described, using a BRET^2 (bioluminescence resonance energy transfer)-based assay, we directly monitored the basal Gαq protein activation by measuring the interaction between Gαq and Gγ2 subunits of the Gαqβ1γ2 heterotrimer complex. Indeed, this assay is based on the non-radiative transfer between the Renilla reniformis luciferase (RLuc8) energy donor fused to the Gαq protein subunit and the fluorescent GFP2 energy acceptor fused to Gγ2 protein subunit (Fig. 1a). […] By contrast, ligand-independent constitutive receptor activation or agonist-induced receptor activation will promote Gαq/Gγ2 subunit dissociation, thereby leading to a decrease of the basal BRET signal (Fig. 1a). […] To preclude any P2Y1-R activation by a passive release of ADP by HEK293T cells, we performed similar experiments in the presence of high concentration of apyrase (0.2U/mL) to degrade any trace of ADP in the medium (Additional File 2: Fig. S2a). Under these conditions, P2Y1-R expression still induces a marked and significant decrease of the basal BRET signal compared to control cells (pcDNA3.1), thereby supporting a P2Y1-R-dependent constitutive activation of Gαq protein. […] Of note, because P2Y1-R and AT1-R were respectively Myc- and HA-tagged and were thus detected using different primary antibodies, their expression at the cell surface cannot be compared between each other’s.
Human P2Y1-R (NCBI Reference Sequence: NM_002563.2) and P2Y12-R (NCBI Reference Sequence: NM_022788.3) were fused to double Myc epitope and rat AT1-R (NCBI Reference Sequence: NM_030985.4) to HA tag in N-terminus extracellular region. Alternatively, receptors were also fused to Venus tag in C-terminus intracellular region. Plasmids encoding Gαq-RLuc8, GFP2-Gγ2 and untagged Gβ1 were previously described. ADP was purchased from Sigma-Aldrich/Merck (Darmstadt, Germany). […] The Gq inhibitor (FR900359) was kindly supplied by Evi Kostenis (University of Bonn. Germany).
G protein activation and β-arrestin 2 recruitment were performed as previously described. Briefly, vectors encoding receptors, Gαq-RLuc8, GFP2-Gγ2, Gβ1, or β-arrestin 2 were transiently cotransfected into HEK293T/17 cells as indicated in the figure legends. Forty-eight hours after transfection, cells were washed and resuspended in PBS containing 0.1% (w/v) glucose at room temperature and then distributed (80 μg proteins/well) in a 96-well microplate (PerkinElmer). For G protein activation experiments (BRET^2), cells were incubated in the absence (basal BRET signal) or in the presence of ligand for 1 minute. BRET signal between RLuc8 and GFP2 was measured after addition of the luciferase substrate coelenterazine 400a (5 μM). For β-arrestin 2 recruitment (BRET^1), cells were stimulated with ligands for 5 or 15 min. BRET signal was recorded after incubation with coelenterazine h (5 μM) for 8 min. For kinetics studies, BRET signal between RLuc and Venus was recorded at 20-s intervals at basal state for the 2 first minutes and then for 5 min after ligand injection. For saturation curves (BRET^1), the expression level of Venus- or RLuc-tagged protein was determined by direct measurement of total fluorescence and luminescence respectively. Total fluorescence was first measured with an excitation filter at 485 nm and an emission filter at 520 nm. Then, the same sample was incubated for 8 minutes with 5 μM coelenterazine h and the total luminescence was measured. BRET^2 and BRET^1 readings were collected using a modified Infinite F500 (Tecan Group Ltd). The BRET^2 signal was calculated by the ratio of emission of GFP2 (510–540 nm) to RLuc8 (370–450 nm) and the BRET^1 signal by the ratio of emission of Venus (520–570 nm) to RLuc (370–480 nm). […]

[2] = test system: washed human platelets (P2Y1-R/Gαq signaling); assay: IP1 accumulation assay (HTRF) in washed human platelets; type: cell-based; settings: washed human platelets, ADP 100 μM, antagonists 10 μM, Gq inhibitor 100 nM, 2 h, apyrase 0.02 U/mL, result in words
Method: As performed in HEK293T cells, we thus quantified intracellular IP1 levels to monitor Gαq protein-dependent signaling pathways.
Human platelets were prepared from adult healthy volunteers free of antiplatelet or anti-inflammatory medication since at least ten days. […] After two steps of centrifugation and suspension in Tyrode’s buffer (140 mM NaCl, 5 mM KCl, 5 mM KH2PO4, 1 mM MgSO4, 10 mM HEPES, 5 mM glucose and 0.35% (w/v) BSA, pH 6,7), washed platelets were suspended in the same buffer adjusted to pH 7.4 and containing 1 mM CaCl2. The final platelet suspension was adjusted to 3.10^8 platelets/mL and rested for 45 min in the presence of 0.02 U/mL apyrase and 10 μM indomethacin at 37 °C prior experiments. PGI2 (0.5 μM) was added before centrifugation steps to avoid platelet activation.
Quantification of intracellular IP1 was performed using the HTRF (Homogeneous Time Resolved Fluorescence) IP1 competitive immunoassay (IP-One Tb kit. Cisbio. France) according to the manufacturer’s instructions. Briefly, 20,000 HEK293T/17 cells or 3.10^6 platelets were distributed in a 384-well white microplate (Greiner) and incubated with the indicated molecules for 30 min or 2 h at 37 °C in the presence of 50 mM of LiCl to prevent IP1 degradation. After addition of d2-labeled IP1 (acceptor) and anti-IP1-Cryptate (donor) for 1 h, the specific FRET signals were calculated by the fluorescence ratio of the acceptor and donor emission signal (665/620 nm) collected using a modified Infinite F500 (Tecan Group Ltd). Conversion of the HTRF ratio of each sample into IP1 concentrations was performed on the basis of a standard curve to determine the linear dynamic range of the assay.

Structure (SMILES) | G protein signaling, Ligand-modulated BRET (% of maximum MRS2179 mean value) ([1]; [Ligand] 1.00E-04 M) | G protein signaling, Ligand-modulated BRET (% of maximum MRS2179 mean value) ([1]; [Ligand] 1.00E-05 M) | G protein signaling, Ligand-modulated BRET (% of maximum MRS2179 mean value) ([1]; [Ligand] 1.00E-06 M) | G protein signaling, Ligand-modulated BRET (% of maximum MRS2179 mean value) ([1]; [Ligand] 1.00E-07 M) | G protein signaling, Ligand-modulated BRET (% of maximum MRS2179 mean value) ([1]; [Ligand] 1.00E-08 M) | G protein signaling, Ligand-modulated BRET (% of maximum MRS2179 mean value) ([1]; [Ligand] 1.00E-09 M) | G protein signaling, Ligand-modulated BRET (% of maximum MRS2179 mean value) ([1]; [Ligand] 1.00E-10 M) | EC50 [1] [µM] | pEC50 ± s.e.m. [1] | Emax ± s.e.m. [1] | Behaviour on P2Y1-R-dependent constitutive Gαq protein activation [1] | Effect on IP1 levels [2]
CNc1nc(I)nc2c1ncn2[C@H]1C[C@H](OP(=O)(O)O)[C@]2(COP(=O)(O)O)C[C@H]12 [MRS2500, 2-iodo-N6-methyl-(N)-methanocarba-2′-deoxyadenosine-3′,5′-bisphosphate] | 155.404 % of maximum MRS2179 mean value and 138.849 % of maximum MRS2179 mean value and 107.119 % of maximum MRS2179 mean value and 132.185 % of maximum MRS2179 mean value and 125.72 % of maximum MRS2179 mean value and 141.754 % of maximum MRS2179 mean value | 122.914 % of maximum MRS2179 mean value and 111.352 % of maximum MRS2179 mean value and 93.6281 % of maximum MRS2179 mean value and 124.36 % of maximum MRS2179 mean value and 97.7584 % of maximum MRS2179 mean value and 107.998 % of maximum MRS2179 mean value | 73.5711 % of maximum MRS2179 mean value and 80.459 % of maximum MRS2179 mean value and 53.1675 % of maximum MRS2179 mean value and 68.2708 % of maximum MRS2179 mean value and 52.8113 % of maximum MRS2179 mean value and 71.2103 % of maximum MRS2179 mean value | 18.6255 % of maximum MRS2179 mean value and 25.6955 % of maximum MRS2179 mean value and 14.1554 % of maximum MRS2179 mean value and 20.945 % of maximum MRS2179 mean value and 1.4 % of maximum MRS2179 mean value and 18.5955 % of maximum MRS2179 mean value | 1.081 % of maximum MRS2179 mean value and -4.947 % of maximum MRS2179 mean value and -10.1975 % of maximum MRS2179 mean value and -7.982 % of maximum MRS2179 mean value and -25.6775 % of maximum MRS2179 mean value and 3.691 % of maximum MRS2179 mean value | -4.558 % of maximum MRS2179 mean value and -14.6104 % of maximum MRS2179 mean value and -16.9372 % of maximum MRS2179 mean value and -9.323 % of maximum MRS2179 mean value and -17.5921 % of maximum MRS2179 mean value and 4.08 % of maximum MRS2179 mean value | -10.8256 % of maximum MRS2179 mean value and -10.2571 % of maximum MRS2179 mean value and -9.064 % of maximum MRS2179 mean value and -13.8903 % of maximum MRS2179 mean value and -18.6423 % of maximum MRS2179 mean value and -6.511 % of maximum MRS2179 mean value | 0.772 | 6.113 ± 0.07237 | 127.2 ± 3.892 | behaved as inverse agonists | inverse agonist efficacy
CNc1nc(Cl)nc2c1ncn2[C@H]1CC(OP(=O)(O)O)[C@]2(COP(=O)(O)O)C[C@H]12 (stereo in doubt) [MRS2279] | 129.138 % of maximum MRS2179 mean value and 120.304 % of maximum MRS2179 mean value and 127.2 % of maximum MRS2179 mean value and 111.359 % of maximum MRS2179 mean value and 120.336 % of maximum MRS2179 mean value and 114.718 % of maximum MRS2179 mean value | 65.0429 % of maximum MRS2179 mean value and 66.0702 % of maximum MRS2179 mean value and 71.1916 % of maximum MRS2179 mean value and 1.991 % of maximum MRS2179 mean value and 5.227 % of maximum MRS2179 mean value and 4.981 % of maximum MRS2179 mean value | 0.8906 % of maximum MRS2179 mean value and 4.044 % of maximum MRS2179 mean value and 23.8581 % of maximum MRS2179 mean value and -4.504 % of maximum MRS2179 mean value and -0.009097 % of maximum MRS2179 mean value and -7.368 % of maximum MRS2179 mean value | -9.195 % of maximum MRS2179 mean value and -17.2152 % of maximum MRS2179 mean value and -1.434 % of maximum MRS2179 mean value and -4.1872 % of maximum MRS2179 mean value and -11.6872 % of maximum MRS2179 mean value and -13.2576 % of maximum MRS2179 mean value | -19.0202 % of maximum MRS2179 mean value and -26.9343 % of maximum MRS2179 mean value and -6.222 % of maximum MRS2179 mean value and 4.642 % of maximum MRS2179 mean value and -7.159 % of maximum MRS2179 mean value and -5.465 % of maximum MRS2179 mean value | -11.1827 % of maximum MRS2179 mean value and -20.1662 % of maximum MRS2179 mean value and -5.932 % of maximum MRS2179 mean value and 1.161 % of maximum MRS2179 mean value and -4.3372 % of maximum MRS2179 mean value and -8.802 % of maximum MRS2179 mean value | -9.413 % of maximum MRS2179 mean value and -16.1844 % of maximum MRS2179 mean value and -3.46 % of maximum MRS2179 mean value and -2.408 % of maximum MRS2179 mean value and -4.624 % of maximum MRS2179 mean value and -8.503 % of maximum MRS2179 mean value | 26.4 | 4.579 ± 0.1247 | 154.3 ± 13.86 | behaved as inverse agonists | inverse agonist efficacy
